PMC12696353, “Structural insights into endogenous agonist selectivity of aminergic receptors from the octopamine β2 receptor” (PNAS Nexus, 2025)
Residue numbers refer to the chain shown, from its start. Entries after “also recorded” stand apart in the source; their conditions may differ. Where two headings read alike, the source gives them in different places.

Key:
[1] = target: T1, is-octβ2R I62^1.43T mutant (Ixodes scapularis, UniProt A0ACM8E5E8, I41T); assay: TGFα shedding assay, amitraz-resistant mutant I62^1.43T; type: cell-based; conditions: Table S4
T1 sequence (A0ACM8E5E8 1-384 I41T): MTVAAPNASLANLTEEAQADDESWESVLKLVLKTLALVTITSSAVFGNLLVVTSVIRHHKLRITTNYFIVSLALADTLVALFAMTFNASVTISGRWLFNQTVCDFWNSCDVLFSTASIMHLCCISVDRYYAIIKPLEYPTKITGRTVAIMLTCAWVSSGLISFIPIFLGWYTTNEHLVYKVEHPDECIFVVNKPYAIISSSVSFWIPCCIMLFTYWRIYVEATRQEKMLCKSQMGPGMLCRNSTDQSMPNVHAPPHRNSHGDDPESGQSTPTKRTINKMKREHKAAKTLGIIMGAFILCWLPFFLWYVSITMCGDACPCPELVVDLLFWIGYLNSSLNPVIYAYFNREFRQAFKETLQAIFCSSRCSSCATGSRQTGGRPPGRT
Protocol: (§1) The TGFα shedding assay was performed as previously described ([28]). […] The cells were transfected using lipofectamine 2000 with plasmids encoding alkaline phosphatase–tagged TGFα (AP-TGFα) (2.5 ng/mL), is-octβ2Rs (1 ng/mL), and Gαq/s (0.5 ng/mL). After 24 h, the cells were washed with phosphate-buffered saline and resuspended in Hank's balanced salt solution (HBSS) (supplemented with 5 mM HEPES [pH 7.4]). The cells (90 μL/well) were plated in a 96-well plate and incubated with 10 μL of HBSS solution containing various concentrations of compounds for 1 h at 37 °C. Following centrifugation (200 × g, 2 min), 80 μL of the supernatant was transferred to a separate 96-well plate. Subsequently, 80 µL of 2× para-nitrophenyl phosphate (pNPP) buffer (containing 10 mM pNPP in 40 mM Tris–HCl [pH 9.5], 40 mM NaCl, and 10 mM MgCl2) was added to both the supernatant and cell-containing plates. The optical density at 405 nm of both plates was measured before and after a 1 h incubation at room temperature using a microplate reader (SpectraMax iD3, Molecular Devices, San Jose, CA, United States). AP-TGFα release was calculated using the following formulas:
(§2) ΔOD405=OD450(1h)−OD405(0h)AP−TGFαinsupernatant(%)=(ΔOD405Sup/[ΔOD450Sup+ΔOD405Cell])×125AP−TGFαrelease(%)=AP−TGFαinsupernatantunderastimulatedcondition(%)−AP−TGFαinsupernatantunderavehicle−treatedcondition
(§3) where OD405 (0 h) and […] represent the OD405 before and after a 1 h incubation, respectively, and OD405Sup and OD405Cell represent the OD405 of supernatant and cell plates, respectively. For all pharmacological analyses, nonlinear regression curve fitting was performed with a 3-parameter sigmoid model (Hill coefficient = 1) using Prism 8 (GraphPad Software, La Jolla, CA, United States).

[2] = target: T2, is-octβ2R Y67^2.41S mutant (Ixodes scapularis, UniProt A0ACM8E5E8, Y67S); assay: TGFα shedding assay, amitraz-resistant mutant Y67^2.41S; type: cell-based; conditions: Table S4
T2 sequence (A0ACM8E5E8 1-384 Y67S): T1 sequence (A0ACM8E5E8 1-384 I41T) with T41I, Y67S
Protocol: as §1, §2, §3

[3] = target: T3, is-octβ2R N87^2.61S mutant (Ixodes scapularis, UniProt A0ACM8E5E8, N87S); assay: TGFα shedding assay, amitraz-resistant mutant N87^2.61S; type: cell-based; conditions: Table S4
T3 sequence (A0ACM8E5E8 1-384 N87S): T1 sequence (A0ACM8E5E8 1-384 I41T) with T41I, N87S
Protocol: as §1, §2, §3

[4] = system: is-octβ2R D110^3.32A mutant; assay: TGFα shedding assay, mutant D110^3.32A; type: cell-based, Ixodes scapularis; conditions: Table S6
Protocol: as §1
(§4) ΔOD405=OD450(1h)−OD405(0h)AP−TGFαinsupernatant(%)=(ΔOD405Sup/[ΔOD450Sup+ΔOD405Cell])×125AP−TGFαrelease(%)=AP−TGFαinsupernatantunderastimulatedcondition(%)−AP−TGFαinsupernatantunderavehicle−treatedcondition […]

[5] = system: is-octβ2R F189^45.52A mutant; assay: TGFα shedding assay, mutant F189^45.52A; type: cell-based, Ixodes scapularis; conditions: Table S6
Protocol: as §1, §4

[6] = system: is-octβ2R S199^5.42A mutant; assay: TGFα shedding assay, mutant S199^5.42A; type: cell-based, Ixodes scapularis
Protocol: as §1, §2, §3

[7] = system: is-octβ2R F303^6.51A mutant; assay: TGFα shedding assay, mutant F303^6.51A; type: cell-based, Ixodes scapularis; conditions: Table S6
Protocol: as §1, §4

[8] = system: is-octβ2R Y307^6.55A mutant; assay: TGFα shedding assay, mutant Y307^6.55A; type: cell-based, Ixodes scapularis; conditions: Table S6
Protocol: as §1, §4

[9] = target: is-octβ2R F328^7.39A mutant (Ixodes scapularis, UniProt A0ACM8E5E8, F328A); assay: TGFα shedding assay, mutant F328^7.39A; type: cell-based
Protocol: as §1, §4

[10] = system: is-octβ2R Y332^7.43A mutant; assay: TGFα shedding assay, mutant Y332^7.43A; type: cell-based, Ixodes scapularis; conditions: Table S6
Protocol: as §1, §4

[11] = target: is-octβ2R V111^3.33A mutant (Ixodes scapularis, UniProt A0ACM8E5E8, V111A); assay: TGFα shedding assay, mutant V111^3.33A; type: cell-based
Protocol: as §1, §4

[12] = target: is-octβ2R T115^3.37A mutant (Ixodes scapularis, UniProt A0ACM8E5E8, T115A); assay: TGFα shedding assay, mutant T115^3.37A; type: cell-based
Protocol: as §1, §4

[13] = target: is-octβ2R S203^5.46A mutant (Ixodes scapularis, UniProt A0ACM8E5E8, S203A); assay: TGFα shedding assay, mutant S203^5.46A; type: cell-based
Protocol: as §1, §4

[14] = Table S6, read-out: logEC50 (converted)

| Compound | EC50 [1] [nM] | EC50 [2] [nM] | EC50 [3] [nM] | logEC50 [4] | logEC50 [5] | logEC50 ([6]; Table S6) | logEC50 ([6]; Table S6, listed as octopamine) | logEC50 [7] | logEC50 [8] | EC50 [9, 14] [nM] | EC50 ([9]; stated as a range in text, read-out: EC50) [nM] | logEC50 [10] | EC50 [11, 14] [nM] | EC50 ([11]; read-out: EC50) [nM] | EC50 [12, 14] [nM] | EC50 ([12]; read-out: EC50) [nM] | EC50 [13, 14] [nM] | EC50 ([13]; read-out: EC50) [nM] |
| --- | --- | --- | --- | --- | --- | --- | --- | --- | --- | --- | --- | --- | --- | --- | --- | --- | --- | --- |
| NCC(O)c1ccc(O)cc1 (stereo not drawn) [Octopamine, octopamine] | 5.01 | 12.6 | 10 | no activity | no activity | signal observed only at 10-5 M | signal observed only at 10^−5 M | no activity | no activity | 1000 | ~1000 | signal observed only at 10-5 M |  |  |  |  |  |  |
| CN/C=N/c1ccc(C)cc1C [DPMF, N-2,4-dimethylphenyl-N′-methylformamidine] | 2 | 6.31 | 7.94 | no activity | no activity | signal observed only at 10-5 M; also recorded: signal observed only at 10^−5 M |  | no activity | no activity |  |  | signal observed only at a concentration of 10^−5 M | 251 | 320 | 5.01 | 5 | 1.26 | 1.3 |
